Starred links: 1 amine or outer side, 2 acyl side, 3 side chain; linkers in the order of their positions; H or OH if unused. Non-standard residues stand in square brackets, D forms with d. Residues, ends and D or L forms follow the SMILES beside them. No end group written: not given here. *: point of attachment. Phe(4-NO2) = N[C@@H](Cc1ccc([N+](=O)[O-])cc1)C(=O)O; Benzoyl(2-COOH) = O=C(O)c1ccccc1C(=O)*; Phe(3-F) = N[C@@H](Cc1cccc(F)c1)C(=O)O; 1Nal = N[C@@H](Cc1cccc2ccccc12)C(=O)O; Phe(2-F) = N[C@@H](Cc1ccccc1F)C(=O)O; 3Pal = N[C@@H](Cc1cccnc1)C(=O)O; pS = N[C@@H](COP(=O)(O)O)C(=O)O; X4 = O=S(=O)(c1ccc(Cl)cc1Cl)*; Fumaroyl = O=C(O)/C=C/C(=O)*; Suc = O=C(CCC(=O)[*:2])[*:1]; X6 = O=C(O)C1CCC(C(=O)*)CC1; MeOSuc = COC(=O)CCC(=O)*
target: βTrCP (Homo sapiens, UniProt Q9Y297); experiment: Fluorescence polarisation (FP) binding assay with fluorescein-tagged IκB peptide; conditions: FP Assay IC50/μM, Tables 1, 3, 7, 8; 10 nM fluorescein-tagged IκB peptide
Sequence (Q9Y297 whole entry): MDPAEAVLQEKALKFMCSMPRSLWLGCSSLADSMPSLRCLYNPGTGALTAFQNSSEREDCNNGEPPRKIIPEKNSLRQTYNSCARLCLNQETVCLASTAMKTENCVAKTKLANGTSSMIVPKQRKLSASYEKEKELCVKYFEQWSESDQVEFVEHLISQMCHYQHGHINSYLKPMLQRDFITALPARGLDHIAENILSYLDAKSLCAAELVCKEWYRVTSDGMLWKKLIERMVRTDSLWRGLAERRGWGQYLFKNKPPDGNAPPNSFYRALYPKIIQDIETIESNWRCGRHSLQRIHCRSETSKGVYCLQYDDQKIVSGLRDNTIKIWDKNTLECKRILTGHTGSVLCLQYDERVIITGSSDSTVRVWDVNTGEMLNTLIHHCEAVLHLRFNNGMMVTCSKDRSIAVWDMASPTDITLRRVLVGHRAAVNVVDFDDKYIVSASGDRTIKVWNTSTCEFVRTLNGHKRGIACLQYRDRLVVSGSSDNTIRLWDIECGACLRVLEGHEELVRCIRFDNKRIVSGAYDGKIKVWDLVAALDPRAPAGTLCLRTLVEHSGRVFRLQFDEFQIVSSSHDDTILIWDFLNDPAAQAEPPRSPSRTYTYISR
Sequence (P63208 whole entry partner): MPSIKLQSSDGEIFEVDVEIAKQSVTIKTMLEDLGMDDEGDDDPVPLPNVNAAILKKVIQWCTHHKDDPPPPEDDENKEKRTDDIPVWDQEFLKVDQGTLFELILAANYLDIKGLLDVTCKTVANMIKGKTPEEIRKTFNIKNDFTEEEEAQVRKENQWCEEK

Molecule	IC50
H-DEGFFE-NH2 [DEGFFE-NH2]	43.6 µM

same assay, conditions: FP dose-response

Molecule	Ki
NC(=O)[C@H](CCC(=O)O)NC(=O)[C@H](Cc1c[nH]c2ccccc12)NC(=O)[C@H](Cc1cccc(F)c1)NC(=O)CNC(=O)[C@H](CCC(=O)O)NC(=O)[C@@H](CC(=O)O)NS(=O)(=O)c1ccc(Cl)cc1Cl [UBP048, 2,4-(Cl)2-PhSO2-dEGF(3F)WE-NH2] (X4-[dD]EG[Phe(3-F)]WE-NH2)	27 nM

same assay, conditions: Tables 1, 3, 7, 8; 10 nM fluorescein-tagged IκB peptide; read-out: FP Assay IC50/μM

Molecule	IC50
NC(=O)[C@H](CCC(=O)O)NC(=O)[C@H](Cc1cccc2ccccc12)NC(=O)[C@H](Cc1ccc(O)cc1)NC(=O)CNC(=O)[C@@H](N)CCC(=O)O [EGY-1Nal-E-NH2] (H-EGY[1Nal]E-NH2)	> 100 µM
DAGIHS-NH2 [DAGIHS-NH2]	> 100 µM
DAGNFE-NH2 [DAGNFE-NH2]	> 100 µM
NC(=O)CC[C@H](N)C(=O)NCC(=O)N[C@@H](Cc1cccc(F)c1)C(=O)N[C@@H](Cc1ccc([N+](=O)[O-])cc1)C(=O)N[C@@H](CCC(=O)O)C(N)=O [QG-F(3F)-F(4NO2)-E-NH2]	> 100 µM
C[C@H](N)C(=O)NCC(=O)N[C@@H](Cc1cccc(F)c1)C(=O)N[C@@H](Cc1ccc([N+](=O)[O-])cc1)C(=O)N[C@@H](CCC(=O)O)C(N)=O [AG-F(3F)-F(4NO2)-E-NH2] (H-AG[Phe(3-F)][Phe(4-NO2)]E-NH2)	> 100 µM
NC(=O)[C@H](Cc1cccc(F)c1)NC(=O)[C@H](Cc1ccccc1F)NC(=O)CNC(=O)[C@H](CCC(=O)O)NC(=O)CCC(=O)O [Suc-EG-F(2F)-F(3F)-NH2] (Suc-EG[Phe(2-F)][Phe(3-F)]-NH2)	> 100 µM
NC(=O)[C@H](CCC(=O)O)NC(=O)[C@H](Cc1cccc2ccccc12)NC(=O)[C@H](Cc1cccc(F)c1)NC(=O)CNC(=O)[C@@H](N)CCC(=O)O [EG-F(3F)-1Nal-E-NH2] (H-EG[Phe(3-F)][1Nal]E-NH2)	> 100 µM
NC(=O)CC[C@H](NC(=O)CCC(=O)O)C(=O)NCC(=O)N[C@@H](Cc1ccc(O)cc1)C(=O)N[C@@H](Cc1ccccc1)C(=O)N[C@@H](CCC(=O)O)C(N)=O [Suc-QGYFE-NH2]	10.7 µM
C[C@H](NC(=O)[C@H](CCC(=O)O)NC(=O)CCC(=O)O)C(=O)N[C@@H](Cc1cccc(F)c1)C(=O)N[C@@H](Cc1ccc([N+](=O)[O-])cc1)C(=O)N[C@@H](CCC(=O)O)C(N)=O [Suc-EA-F(3F)-F(4NO2)-E-NH2]	27.5 µM
VDAGIHS-NH2 [VDAGIHS-NH2]	> 100 µM
COC(=O)CCC(=O)N[C@@H](CCC(=O)O)C(=O)NCC(=O)N[C@@H](Cc1cccc(F)c1)C(=O)N[C@@H](Cc1cccc2ccccc12)C(=O)N[C@@H](CCC(=O)O)C(N)=O [(MeO)Suc-EG-F(3F)-1Nal-E-NH2] (MeOSuc-EG[Phe(3-F)][1Nal]E-NH2)	1.6 µM
COC(=O)CC[C@H](NC(=O)[C@H](Cc1ccc(OC)cc1)NC(=O)[C@H](Cc1ccccc1)NC(=O)CNC(=O)[C@H](CCC(=O)O)NC(=O)CCC(=O)O)C(N)=O [Suc-EGF-Y(Me)-E(OMe)-NH2] (Suc-EGFY(Me)E(OMe)-NH2)	71 µM
CC[C@H](C)[C@H](NC(=O)CNC(=O)[C@H](COP(=O)(O)O)NC(=O)[C@@H](N)CC(=O)O)C(=O)N[C@@H](Cc1ccccc1)C(=O)N[C@@H](Cc1c[nH]cn1)C(N)=O [D-pS-GIFH-NH2] (H-D[pS]GIFH-NH2)	> 100 µM
C[C@H](NC(=O)[C@@H](N)CCC(=O)O)C(=O)N[C@@H](Cc1cccc(F)c1)C(=O)N[C@@H](Cc1ccc([N+](=O)[O-])cc1)C(=O)N[C@@H](CCC(=O)O)C(N)=O [EA-F(3F)-F(4NO2)-E-NH2]	> 100 µM
EAGIFE-NH2 [EAGIFE-NH2]	> 100 µM
CC[C@H](C)[C@H](NC(=O)CNC(=O)[C@H](C)NC(=O)CCC(=O)O)C(=O)N[C@@H](Cc1ccccc1)C(=O)N[C@@H](CCC(=O)O)C(N)=O [Suc-AGIFE-NH2] (Suc-AGIFE-NH2)	> 100 µM
NC(=O)[C@H](Cc1ccc([N+](=O)[O-])cc1)NC(=O)[C@H](Cc1ccc(O)cc1)NC(=O)CNC(=O)[C@H](CCC(=O)O)NC(=O)CCC(=O)O [Suc-EGY-F(4NO2)-NH2] (Suc-EGY[Phe(4-NO2)]-NH2)	91 µM
CC[C@H](C)[C@H](NC(=O)CNC(=O)[C@H](CC(N)=O)NC(=O)[C@H](N)CC(=O)O)C(=O)N[C@@H](Cc1ccccc1)C(=O)N[C@@H](CCCNC(=N)N)C(N)=O [dNGIFR-NH2] (H-[dD]NGIFR-NH2)	> 100 µM
NC(=O)[C@H](Cc1ccc([N+](=O)[O-])cc1)NC(=O)[C@H](Cc1cccc(F)c1)NC(=O)CNC(=O)[C@H](CCC(=O)O)NC(=O)CCC(=O)O [Suc-EG-F(3F)-F(4NO2)-NH2] (Suc-EG[Phe(3-F)][Phe(4-NO2)]-NH2)	> 100 µM
CC[C@H](C)[C@H](NC(=O)CNC(=O)[C@H](C)NC(=O)[C@H](N)CC(=O)O)C(=O)N[C@@H](Cc1ccccc1)C(=O)N[C@@H](CC(=O)O)C(N)=O [dAGIFD-NH2] (H-[dD]AGIFD-NH2)	> 100 µM
CC[C@H](C)[C@H](NC(=O)CNC(=O)[C@H](COP(=O)(O)O)NC(=O)[C@H](CC(=O)O)NC(=O)[C@H](C)N)C(=O)N[C@@H](Cc1c[nH]cn1)C(=O)N[C@@H](CO)C(N)=O [AD-pS-GIHS-NH2] (H-AD[pS]GIHS-NH2)	> 100 µM
CC[C@H](C)[C@H](NC(=O)CNC(=O)[C@H](COP(=O)(O)O)NC(=O)[C@H](CC(=O)O)NC(=O)[C@@H](N)C(C)C)C(=O)N[C@@H](Cc1c[nH]cn1)C(=O)N[C@@H](CO)C(N)=O [VD-pS-GIHS-NH2] (H-VD[pS]GIHS-NH2)	> 100 µM

Molecule	IC50
NC(=O)C[C@H](NC(=O)CNC(=O)[C@H](COP(=O)(O)O)NC(=O)[C@@H](N)CC(=O)O)C(=O)N[C@@H](Cc1ccccc1)C(=O)N[C@@H](CCC(=O)O)C(N)=O [D-pS-GNFE-NH2] (H-D[pS]GNFE-NH2)	> 100 µM
GDAGIHS-NH2 [GDAGIHS-NH2]	> 100 µM
NC(=O)[C@H](CCC(=O)O)NC(=O)[C@H](Cc1ccc([N+](=O)[O-])cc1)NC(=O)[C@H](Cc1ccc(O)cc1)NC(=O)CNC(=O)[C@@H](N)CCC(=O)O [EGY-F(4NO2)-E-NH2] (H-EGY[Phe(4-NO2)]E-NH2)	> 100 µM
NC(=O)[C@H](CCC(=O)O)NC(=O)[C@H](Cc1ccccc1)NC(=O)[C@H](Cc1ccccc1)NC(=O)CNC(=O)[C@H](CCC(=O)O)NC(=O)C1CCC(C(=O)O)CC1 (stereo partly drawn) [1,4-Chda-EGFFE-NH2] (X6-EGFFE-NH2)	> 100 µM
COc1ccc(C[C@H](NC(=O)[C@H](Cc2cccc(F)c2)NC(=O)CNC(=O)[C@H](CCC(=O)O)NC(=O)CCC(=O)O)C(=O)N[C@@H](CCC(=O)O)C(N)=O)cc1 [Suc-EG-F(3F)-Y(Me)-E-NH2] (Suc-EG[Phe(3-F)]Y(Me)E-NH2)	1.4 µM
CC[C@H](C)[C@H](NC(=O)CNC(=O)[C@H](COP(=O)(O)O)NC(=O)[C@@H](N)CCC(=O)O)C(=O)N[C@@H](Cc1ccccc1)C(=O)N[C@@H](CCC(=O)O)C(N)=O [E-pS-GIFE-NH2] (H-E[pS]GIFE-NH2)	34.5 µM
NC(=O)[C@H](Cc1cccc(F)c1)NC(=O)[C@H](Cc1ccc(O)cc1)NC(=O)CNC(=O)[C@H](CCC(=O)O)NC(=O)CCC(=O)O [Suc-EGY-F(3F)-NH2] (Suc-EGY[Phe(3-F)]-NH2)	91 µM
NC(=O)CC[C@H](NC(=O)CCC(=O)O)C(=O)NCC(=O)N[C@@H](Cc1ccccc1)C(=O)N[C@@H](Cc1ccccc1)C(=O)N[C@@H](CCC(=O)O)C(N)=O [Suc-QGFFE-NH2]	10 µM
C[C@H](NC(=O)c1ccccc1C(=O)O)C(=O)NCC(=O)N[C@@H](Cc1ccccc1)C(=O)N[C@@H](Cc1ccccc1)C(=O)N[C@@H](CCC(=O)O)C(N)=O [Phth-AGFFE-NH2] ({Benzoyl(2-COOH)}-AGFFE-NH2)	> 100 µM
LDASGIHS-NH2 [LDASGIHS-NH2]	> 100 µM
CC[C@H](C)[C@H](NC(=O)CNC(=O)[C@H](COP(=O)(O)O)NC(=O)[C@@H](N)CC(=O)O)C(=O)N[C@@H](Cc1c[nH]cn1)C(=O)N[C@@H](CO)C(N)=O [D-pS-GIHS-NH2] (H-D[pS]GIHS-NH2)	> 100 µM
CC[C@H](C)[C@H](NC(=O)CNC(=O)[C@H](CCC(=O)O)NC(=O)CCC(=O)O)C(=O)N[C@@H](Cc1cccc2ccccc12)C(=O)N[C@@H](CCC(=O)O)C(N)=O [Suc-EGI-1Nal-E-NH2] (Suc-EGI[1Nal]E-NH2)	15.1 µM
CC[C@H](C)[C@H](NC(=O)CNC(=O)[C@H](COP(=O)(O)O)NC(=O)[C@H](CC(=O)O)NC(=O)CN)C(=O)N[C@@H](Cc1c[nH]cn1)C(=O)N[C@@H](CO)C(N)=O [GD-pS-GIHS-NH2] (H-GD[pS]GIHS-NH2)	> 100 µM
CC[C@H](C)[C@H](NC(=O)[C@H](Cc1c[nH]cn1)NC(=O)CNC(=O)[C@H](CO)NC(=O)[C@H](COP(=O)(O)O)NC(=O)[C@H](CC(=O)O)NC(=O)[C@@H](N)CC(C)C)C(=O)N[C@@H](CO)C(N)=O [LD-pS-SGHIS-NH2] (H-LD[pS]SGHIS-NH2)	> 100 µM
CC[C@H](C)[C@H](NC(=O)CNC(=O)[C@H](C)NC(=O)[C@H](N)CC(=O)O)C(=O)N[C@@H](Cc1ccccc1)C(=O)N[C@@H](CCCNC(=N)N)C(N)=O [dAGIFR-NH2] (H-[dD]AGIFR-NH2)	> 100 µM
ADAGIHS-NH2 [ADAGIHS-NH2]	> 100 µM
C[C@H](NC(=O)[C@H](CCC(=O)O)NC(=O)CCC(=O)O)C(=O)N[C@@H](Cc1ccccc1)C(=O)N[C@@H](Cc1ccccc1)C(=O)N[C@@H](CCC(=O)O)C(N)=O [Suc-EAFFE-NH2]	59.8 µM
NC(=O)[C@H](CCC(=O)O)NC(=O)[C@H](Cc1ccc([N+](=O)[O-])cc1)NC(=O)[C@H](Cc1cccc(F)c1)NC(=O)CNC(=O)[C@H](CCC(=O)O)NC(=O)/C=C/C(=O)O [Fum-EG-F(3F)-F(4NO2)-E-NH2] (Fumaroyl-EG[Phe(3-F)][Phe(4-NO2)]E-NH2)	60.4 µM
NC(=O)[C@H](Cc1cccc2ccccc12)NC(=O)[C@H](Cc1ccc([N+](=O)[O-])cc1)NC(=O)CNC(=O)[C@H](CCC(=O)O)NC(=O)CCC(=O)O [Suc-EG-F(4NO2)-1Nal-NH2] (Suc-EG[Phe(4-NO2)][1Nal]-NH2)	14 µM
NC(=O)[C@H](Cc1cccnc1)NC(=O)[C@H](Cc1cccc(F)c1)NC(=O)CNC(=O)[C@H](CCC(=O)O)NC(=O)CCC(=O)O [Suc-EG-F(3F)-3Pal-NH2] (Suc-EG[Phe(3-F)][3Pal]-NH2)	70 µM
CC[C@H](C)[C@H](NC(=O)CNC(=O)[C@H](C)NC(=O)c1ccccc1C(=O)O)C(=O)N[C@@H](Cc1ccccc1)C(=O)N[C@@H](CCC(=O)O)C(N)=O [Phth-AGIFE-NH2] ({Benzoyl(2-COOH)}-AGIFE-NH2)	> 100 µM

Source: patent publication US20190106460A1, “BINDING INHIBITORS OF THE BETA. TRANSDUCIN REPEAT-CONTAINING PROTEIN” (priority 2011, published 2019)
